Results as given in paper PMC8706783 (Pharmaceutics, 2021).
Where two headings read alike, the source gives them in different places.

Legend:
UGT1A6 = biological target: T1, UGT1A6 (Homo sapiens, UniProt P19224); assay: Enzyme inhibition assay, UGT1A6; format: in vitro ADME; settings: Recombinant UGT1A6; 4-methylumbelliferone O-glucuronidation
T1 sequence (P19224 27-532): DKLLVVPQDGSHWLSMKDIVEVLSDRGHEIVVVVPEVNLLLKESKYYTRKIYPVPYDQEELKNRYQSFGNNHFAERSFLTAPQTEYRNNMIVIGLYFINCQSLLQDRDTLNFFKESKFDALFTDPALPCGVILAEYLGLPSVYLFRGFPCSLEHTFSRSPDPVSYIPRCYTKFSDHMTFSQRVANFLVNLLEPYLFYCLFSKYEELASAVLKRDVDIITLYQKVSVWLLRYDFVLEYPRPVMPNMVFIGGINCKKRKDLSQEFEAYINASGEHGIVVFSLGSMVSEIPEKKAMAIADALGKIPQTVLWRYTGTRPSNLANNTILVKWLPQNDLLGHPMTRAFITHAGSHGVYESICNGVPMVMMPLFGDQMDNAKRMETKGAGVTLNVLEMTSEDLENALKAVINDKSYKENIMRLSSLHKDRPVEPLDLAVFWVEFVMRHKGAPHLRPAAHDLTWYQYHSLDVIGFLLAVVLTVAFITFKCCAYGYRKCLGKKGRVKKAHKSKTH

UGT1A7 = biological target: T2, UGT1A7 (Homo sapiens, UniProt Q9HAW7); assay: Enzyme inhibition assay, UGT1A7
T2 sequence (Q9HAW7 26-530): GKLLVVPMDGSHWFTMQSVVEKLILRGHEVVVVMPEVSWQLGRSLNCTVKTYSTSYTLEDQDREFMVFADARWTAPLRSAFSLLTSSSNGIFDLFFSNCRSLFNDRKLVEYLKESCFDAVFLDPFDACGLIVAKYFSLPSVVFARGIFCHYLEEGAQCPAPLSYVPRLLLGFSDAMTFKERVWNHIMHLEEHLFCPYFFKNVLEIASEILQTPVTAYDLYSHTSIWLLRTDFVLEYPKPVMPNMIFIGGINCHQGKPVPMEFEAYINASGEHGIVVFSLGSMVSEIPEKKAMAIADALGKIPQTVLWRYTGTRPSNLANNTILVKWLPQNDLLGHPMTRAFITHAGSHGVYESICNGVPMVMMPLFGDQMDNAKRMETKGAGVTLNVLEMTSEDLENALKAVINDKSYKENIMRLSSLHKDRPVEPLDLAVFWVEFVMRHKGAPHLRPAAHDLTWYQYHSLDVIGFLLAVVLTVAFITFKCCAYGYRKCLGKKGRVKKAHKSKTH

CYP1A2 = biological target: T3, CYP1A2 (Homo sapiens, UniProt P05177); assay: Enzyme inhibition assay, CYP1A2
T3 sequence (P05177 1-516): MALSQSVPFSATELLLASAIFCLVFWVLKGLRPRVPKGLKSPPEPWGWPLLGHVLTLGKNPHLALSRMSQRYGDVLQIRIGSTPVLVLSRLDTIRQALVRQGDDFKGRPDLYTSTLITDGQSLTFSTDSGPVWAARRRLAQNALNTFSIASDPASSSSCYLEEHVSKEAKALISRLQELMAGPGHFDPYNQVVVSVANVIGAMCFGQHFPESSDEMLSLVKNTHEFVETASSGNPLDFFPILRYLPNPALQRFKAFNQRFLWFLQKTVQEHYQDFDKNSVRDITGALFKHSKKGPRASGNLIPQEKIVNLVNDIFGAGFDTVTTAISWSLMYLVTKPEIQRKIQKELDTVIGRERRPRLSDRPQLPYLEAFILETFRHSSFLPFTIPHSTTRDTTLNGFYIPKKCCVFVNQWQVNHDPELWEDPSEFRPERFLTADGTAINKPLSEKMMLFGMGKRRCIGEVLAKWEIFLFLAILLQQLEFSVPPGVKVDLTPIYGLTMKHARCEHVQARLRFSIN

UGT1A1 = biological target: T4, UGT1A1 (Homo sapiens, UniProt P22309); assay: Enzyme inhibition assay, UGT1A1; format: in vitro ADME; settings: for IC50: HLM, UGT1A1 SN38 glucuronidation
T4 construct: from tissue
T4 sequence (P22309 26-533): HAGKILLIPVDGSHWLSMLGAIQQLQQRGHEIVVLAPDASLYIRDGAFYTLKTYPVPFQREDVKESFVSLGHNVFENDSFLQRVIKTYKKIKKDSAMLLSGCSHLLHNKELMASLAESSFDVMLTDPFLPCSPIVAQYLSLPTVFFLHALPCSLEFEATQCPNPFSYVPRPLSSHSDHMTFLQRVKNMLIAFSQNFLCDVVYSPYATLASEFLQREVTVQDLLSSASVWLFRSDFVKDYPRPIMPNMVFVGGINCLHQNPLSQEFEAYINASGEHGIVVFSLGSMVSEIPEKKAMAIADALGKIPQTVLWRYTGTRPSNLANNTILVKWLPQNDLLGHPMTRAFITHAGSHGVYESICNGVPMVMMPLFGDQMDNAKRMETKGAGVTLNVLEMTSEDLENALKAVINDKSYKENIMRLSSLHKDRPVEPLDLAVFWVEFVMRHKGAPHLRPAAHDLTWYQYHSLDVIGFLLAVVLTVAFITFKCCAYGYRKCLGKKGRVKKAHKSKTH

CYP1A1 = biological target: T5, CYP1A1 (Homo sapiens, UniProt P04798); assay: Enzyme inhibition assay, CYP1A1; format: in vitro ADME; design: purchased Xenotech LLC; settings: Recombinant CYP1A1; phenacetin-O-deethylation
T5 sequence (P04798 1-512): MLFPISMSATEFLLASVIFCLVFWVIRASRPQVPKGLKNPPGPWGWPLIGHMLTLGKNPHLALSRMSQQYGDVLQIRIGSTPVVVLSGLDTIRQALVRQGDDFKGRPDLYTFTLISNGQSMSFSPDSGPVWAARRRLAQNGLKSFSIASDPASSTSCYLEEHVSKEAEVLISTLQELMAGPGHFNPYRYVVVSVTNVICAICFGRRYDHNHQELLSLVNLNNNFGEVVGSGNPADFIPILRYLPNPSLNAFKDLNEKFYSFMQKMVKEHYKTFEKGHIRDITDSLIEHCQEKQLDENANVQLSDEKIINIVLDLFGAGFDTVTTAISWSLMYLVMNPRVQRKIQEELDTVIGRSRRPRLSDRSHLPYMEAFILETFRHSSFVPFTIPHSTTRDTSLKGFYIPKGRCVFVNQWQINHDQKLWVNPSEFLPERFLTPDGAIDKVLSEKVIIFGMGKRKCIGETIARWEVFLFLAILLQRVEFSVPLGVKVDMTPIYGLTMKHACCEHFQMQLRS

| Structure (SMILES) | IC50 (UGT1A6) | IC50 (UGT1A7) | IC50 (CYP1A2) | IC50 (UGT1A1; read-out: IC50) | IC50 (CYP1A1) | IC50 (UGT1A1) | Emax at 15 min, 30 µM (UGT1A1; human, human liver microsomes, probe SN38 (0.5 µM), SN38 glucuronidation, read-out: maximum activation of SN38 glucuronidation) |
| --- | --- | --- | --- | --- | --- | --- | --- |
| Cc1cc(C)c(Nc2ccnc(Nc3ccc(C#N)cc3)n2)c(C)c1 [DPV, Dapivirine] | 19.6 µM | 24.2 µM | 10.5 µM | 5.2 µM | 0.5 µM |  |  |
| Clc1ccc(COC(Cn2ccnc2)c2ccc(Cl)cc2Cl)c(Cl)c1 (centres unmarked) [MIC, miconazole] | 17.1 µM | > 30 µM | 5.11 µM |  | 0.43 µM | Apparent activation with MIC | 607% |
